Results taken from patent US10201558B2, “Compositions of selenoorganic compounds and methods of use thereof” (Alltech, Inc., priority 2014, dated 2019).
Entries after “also recorded” stand apart in the source; their conditions may differ.

Legend:
PGC-1α = test: Western blot of PGC-1α protein in IMR-32 cells; format: cell-based, human; conditions: 150 ppb, 24 hours
Method: (§1) IMR-32 cells were seeded on 6-well plates and then treated with control and various compounds for 6 hours and 24 hours, as described above. After treatments, cells were rinsed with ice-cold PBS and lysed in ice-cold RIPA buffer containing complete proteinase and phosphatase inhibitors (Thermo-Fisher Scientific, Waltham, Mass.) on ice for 30 min Cell lysates were collected using a cell scraper and transfer pipette and then centrifuged at 12000×g for 30 min at 4° C. to remove the DNA pellet and obtain the protein extract. Protein levels in the supernatant of these cell lysates were determined using the Pierce Micro-BCA protein assay kit (Thermo Scientific-Piece Biotechnology, Rockford, Ill.) according to the manufacturer's protocol […]
(§2) Positive signals on the membrane blots were detected using Amersham's enhanced chemiluminescence (ECL) Western Blotting Prime Detection reagents (GE healthcare Lifescience, Pittsburgh, Pa.). Images of these luminescence signals on the membrane blots were captured using the LI-COR Odyssey Fc Image system (Lincoln, Nebr.). […] Protein band densities in the Western blots were determined using the Li—COR Image studio software or NIH ImageJ software, and then normalized by ACTB protein level in each sample. […]

UCP3 = test: QRT-PCR of UCP3 mRNA in IMR-32 cells; format: cell-based, human; conditions: 150 ppb, 6 hours
Method: (§3) Human IMR-32 cells were seeded on gelatinized 6-well (6.5×10^5 cells/well) or 24-well (1.3×10^5 cells/well) plates. Cells were treated with control (0 ppb) or various compounds for 6 hours or 24 hours. Total RNA from these cells was isolated using Trizol (Invitrogen) according to the manufacturer's protocol, and then incubated with DNase I to remove any potential contaminated genomic DNA. Then RNA samples were subjected to real-time PCR analysis using the Applied-Bioscience's RT kit and predesigned Taqman probes (Invitrogen), as described previously (Lan et al EMBO J 2003). The mRNA levels of UCP1, UCP2, UCP3, SLC25A27 (UCP4), SLC25A14 (UCP5), PSEN1, Nicastrin, GSK3B, MAPK11-14, PPARG, APOE, RCAN1, RCAN1.1, G6PC, INSR, IGF1R and FOXO4 were measured. Three to six samples were analyzed in each treatment group. Data were normalized by Actin B (ACTB) or Glyceraldehyde Phosphate Dehydrogenase (GAPDH) mRNA levels in each sample and are presented as mean±SEM of 3-6 samples.

UCP5 (SLC25A14) = test: QRT-PCR of UCP5 (SLC25A14) mRNA in IMR-32 cells; format: cell-based, human; conditions: 150 ppb, 6 hours
Method: as §3

PSEN1 = test: QRT-PCR of PSEN1 mRNA in IMR-32 cells; format: cell-based, human
Method: as §3
RNA samples were extracted, purified, and subjected to real-time PCR analysis using Applied-Bioscience's RT kit and Taqman probes (Invitrogen) as described previously in Example 4. Protein samples were also prepared from cell lysates and western blot analysis was performed as previously described in Example 4. Data are presented as mean±SEM of 3 protein samples and 4 RNA samples per group. The relative mRNA and protein expression levels of PSEN1 and NICASTRIN, were measured. All primary antibodies were purchased from Cell Signaling Inc., Beverly, Mass.

PSEN2 = PSEN2 expression in IMR-32 cells; format: cell-based, human
GSK3B = test: Western blot of total GSK3B protein in IMR-32 cells; format: cell-based, human; conditions: 150 ppb, 24 hours
Method: as §1, §2

[1] = test system: phosphorylated FOXO4 (pFOXO4 T28); test: Western blot of phosphorylated FOXO4 in IMR-32 cells; format: cell-based, human; conditions: for phosphorylation of FOXO4 (pFOXO4) levels: 6 hours; for pFOXO4 Threonine 28 (T28) levels: 24 hours
Method: IMR-32 cells were seeded on 6-well plates and then treated with control and various compounds for 6 hours and 24 hours, as described above. After treatments, cells were rinsed with ice-cold PBS and lysed in ice-cold RIPA buffer containing complete proteinase and phosphatase inhibitors (Thermo-Fisher Scientific, Waltham, Mass.) on ice for 30 min Cell lysates were collected using a cell scraper and transfer pipette and then centrifuged at 12000×g for 30 min at 4° C. to remove the DNA pellet and obtain the protein extract. Protein levels in the supernatant of these cell lysates were determined using the Pierce Micro-BCA protein assay kit (Thermo Scientific-Piece Biotechnology, Rockford, Ill.) according to the manufacturer's protocol
For Western blot analysis, five micrograms of total proteins from control (0 ppb)- and compound(s)-treated cells were subjected to SDS-PAGE gel separation and then transferred to PVDF membranes, as described previously (Reddy, Liu et al. 2008 Science). Membranes were blocked in a phosphate-buffered saline (PBS) containing 5% (w/v) of bovine serum albumin (Sigma, St. Louis, Mo.) and incubated with specific primary antibodies followed by the incubation with HRP-conjugated anti-mouse or anti-rabbit secondary antibodies (1:5000 dilution, Cell Signaling Inc.). All primary antibodies except PGC1a (Abcam, Cambridge, Mass.), G6pc (Santa Cruz, Dallas, Tex.) and Actb (Li-Cor, Lincoln, Nebr.) were purchased from Cell Signaling Inc., Beverly, Mass.
Positive signals on the membrane blots were detected using Amersham's enhanced chemiluminescence (ECL) Western Blotting Prime Detection reagents (GE healthcare Lifescience, Pittsburgh, Pa.). Images of these luminescence signals on the membrane blots were captured using the LI-COR Odyssey Fc Image system (Lincoln, Nebr.). The same membrane blot was stripped and re-blotted with another antibody as described in the GE WB ECL-prime-detection protocol (GE Healthcare Lifescience, Pittsburgh, Pa.). Protein band densities in the Western blots were determined using the Li—COR Image studio software or NIH ImageJ software, and then normalized by ACTB protein level in each sample. Data are presented as mean±SEM of three samples per each group.

[2] = test system: primary fetal rat neurons; test: Cell survival of primary cortical neurons (cell counts); format: cell-based; conditions: 150 ppb selenium compound(s), 24 hours; Control 100 ± 1.57; mixture: 30 ppb of the element from each compound
Method: For primary neurons, dissociated primary cortical neuron cultures were established from E-18 rat embryos as previously described (Lovell et al., Free Radic. Biol. Med. 2000; Lovell et al., Neurobiol. Aging 2001). Studies were carried out on cells 7 days in culture by switching to Locke's solution consisting of 1 mL of 154 mM NaCl, 5.6 mM KCl, 2.3 mM CaCl2, 1.0 mM MgCl2, 3.6 mM NaHCO3, 10 mM glucose, 5 mM HEPES (pH 7.2) with 10 mg/L gentamicin sulfate. Primary neurons were treated for 24 hours in Locke's solution with the indicated selenium and sulfur compounds in Table 5. Cell counts were performed to measure cell survival/toxicity.
The effects of the selenium and sulfur compounds, identified as components of water extracts of selenium-enriched yeast, on neuronal cell survival was also tested. Primary neurons isolated from fetal rat brain were incubated with chemically synthesized individual selenium and sulfur compounds that were identified as components of water extracts of selenium-enriched yeast (Table 5). In this case, the elemental concentration of each compound identified in Table 5 was 150 ppb and, where mixtures were used, the 150 ppb treatment was made up of 30 ppb of the element from each of the five compounds in question.

Row | Compound | PGC-1α protein levels (normalized by ACTB) (PGC-1α) | UCP3 mRNA expression (UCP3) | UCP5 (SLC25A14) mRNA expression (UCP5 (SLC25A14)) | PSEN1 mRNA expression (PSEN1; 24 hours) | PSEN2 expression (PSEN2) | total GSK3B protein levels (GSK3B) | phosphorylation of FOXO4 (pFOXO4) levels [1] | pFOXO4 Threonine 28 (T28) levels [1] | Viable Cell Number (Mean ± SEM, n = 6) [2] | PSEN1 mRNA expression, dose response (PSEN1; 75 ppb and 150 ppb, 24 hours) | PSEN1 mRNA expression (PSEN1; 150 ppb, 6 hours and 24 hours)
1 | C[Se]C[C@H](NC(=O)CC[C@H](N)C(=O)O)C(=O)O [Compound E, γ-L-glutamyl-Se-methyl-L-selenocysteine] | increase | did not have any effect | did not have any effect | stimulated | no downregulation | not observed; also recorded: no significant difference | decrease | decreased | 95.69 ± 10.53 |  | 
2 | C[Se]C[C@H]1O[C@@H](n2cnc3c(N)ncnc32)C(O)C1O (stereo in doubt) [Compound C, 5′-deoxy-5′-methylselenoadenosine] | increase; also recorded: elevated | significant decrease; also recorded: inhibited | trend towards decreased; also recorded: trend towards reduced |  | no downregulation | visibly decreased; also recorded: statistically significant decrease | decrease | decreased | 101.1 ± 4.22 | Significant dose-dependent decreases | significantly reduced
